In US9474790B2, “Stable, protracted GLP-1/glucagon receptor co-agonists for medical use” (Novo Nordisk A/S, priority 2013, dated 2016):
Numbered stars: 1 amine (or outer) side, 2 acyl side, 3 side chain; on linkers, the order of the positions; unused ones are H or OH. Bridge positions count the residues as written; N and C are the ends. Square brackets hold non-standard residues; d marks the D form. Side chains are listed from the residue outwards. Peptide text beside a SMILES is read from it. I, II: the chains in the order shown. * marks the point of attachment. C18 diacid = O=C(O)CCCCCCCCCCCCCCCCC(=O)*; γGlu = O=C(O)[C@H](CCC(=O)[*:2])N[*:1]; Ac4c = NC1(C(=O)O)CCC1; AEEA = NCCOCCOCC(=O)O; Aib = CC(C)(N)C(=O)O

biological target: T1, human glucagon receptor (Homo sapiens, UniProt P47871); assay: Glucagon receptor potency, CRE luciferase reporter gene assay in BHK cells; format: cell-based; conditions: BHK cells expressing human glucagon receptor, read-out: EC50 GlucR
T1 construct: expressed in transfected cells; host or cells: BHK cells (parent BHK570, CRE luciferase clone BHK/KZ10-20-48), clone pLJ6'-4-25
In short: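 EC50 (pM) comes from a four-parameter fit of luciferase luminescence after 3 h at 37 °C with compound at final 1×10EE-13–1×10EE-6 M. Cells: BHK570-derived line carrying human glucagon receptor plus CRE-luciferase, 5×10EE3/well, in assay medium with 2% ovalbumin, 0.2% Pluronic F-68.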

T1 sequence (P47871 26-477): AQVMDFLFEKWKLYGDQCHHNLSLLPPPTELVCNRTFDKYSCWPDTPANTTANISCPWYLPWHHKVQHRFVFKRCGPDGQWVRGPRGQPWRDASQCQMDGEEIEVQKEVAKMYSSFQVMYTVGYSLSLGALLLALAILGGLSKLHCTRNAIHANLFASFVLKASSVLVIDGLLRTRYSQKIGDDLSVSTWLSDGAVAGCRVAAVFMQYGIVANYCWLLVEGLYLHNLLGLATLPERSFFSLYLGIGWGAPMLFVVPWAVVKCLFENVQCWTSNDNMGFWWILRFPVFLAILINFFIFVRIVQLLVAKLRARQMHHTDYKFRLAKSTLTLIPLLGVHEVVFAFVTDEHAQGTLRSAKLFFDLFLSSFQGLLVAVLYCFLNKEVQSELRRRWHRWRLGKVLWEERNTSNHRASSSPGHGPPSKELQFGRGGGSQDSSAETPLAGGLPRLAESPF

Compound	EC50
CC(C)C[C@H](NC(=O)[C@H](Cc1ccc(O)cc1)NC(=O)[C@H](CCCCN)NC(=O)[C@H](CO)NC(=O)[C@H](CC(C)C)NC(=O)[C@H](CC(=O)O)NC(=O)[C@H](CO)NC(=O)[C@@H](NC(=O)[C@H](Cc1ccccc1)NC(=O)[C@@H](NC(=O)CNC(=O)[C@H](CCC(N)=O)NC(=O)C(C)(C)NC(=O)[C@@H](N)Cc1c[nH]cn1)[C@@H](C)O)[C@@H](C)O)C(=O)N[C@@H](CCC(=O)O)C(=O)N[C@@H](CO)C(=O)N[C@@H](CCCNC(=N)N)C(=O)N[C@@H](CCCNC(=N)N)C(=O)N[C@@H](C)C(=O)N[C@@H](CCCNC(=N)N)C(=O)N[C@@H](CCC(=O)O)C(=O)N[C@@H](Cc1ccccc1)C(=O)N[C@H](C(=O)N[C@@H](CCC(N)=O)C(=O)N[C@@H](Cc1c[nH]c2ccccc12)C(=O)N[C@@H](CC(C)C)C(=O)N[C@@H](CC(C)C)C(=O)N[C@@H](CCCCNC(=O)CC[C@H](NC(=O)CC[C@H](NC(=O)COCCOCCNC(=O)COCCOCCNC(=O)CC[C@H](NC(=O)CCCCCCCCCCCCCCCCC(=O)O)C(=O)O)C(=O)O)C(=O)O)C(=O)N[C@H](C(N)=O)[C@@H](C)O)C(C)C [Example 23, N^ε28-[(4S)-4-carboxy-4-[[(4S)-4-carboxy-4-[[2-[2-[2-[[2-[2-[2-[[(4S)-4-carboxy-4-(17-carboxyheptadecanoylamino)butanoyl]amino]ethoxy]ethoxy]acetyl]amino]ethoxy]ethoxy]acetyl]amino]butanoyl]amino]butanoyl]-[Aib2,Leu10,Glu15,Arg20,Glu21,Leu27,Lys28]-Glucagon amide] (H-H[Aib]QGTFTSDLSKYLESRRAREFVQWLLK([γGlu-γGlu-AEEA-AEEA-γGlu-C18 diacid])T-NH2; N-terminus assumed)	0.0773 nM
CC(C)C[C@H](NC(=O)[C@H](Cc1ccc(O)cc1)NC(=O)[C@H](CCCCN)NC(=O)[C@H](CO)NC(=O)[C@H](CC(C)C)NC(=O)[C@H](CC(=O)O)NC(=O)[C@H](CO)NC(=O)[C@@H](NC(=O)[C@H](Cc1ccccc1)NC(=O)[C@@H](NC(=O)CNC(=O)[C@H](CCC(N)=O)NC(=O)C(C)(C)NC(=O)[C@@H](N)Cc1c[nH]cn1)[C@@H](C)O)[C@@H](C)O)C(=O)N[C@@H](CCC(=O)O)C(=O)N[C@@H](CO)C(=O)N[C@@H](CCCCN)C(=O)N[C@@H](CCCNC(=N)N)C(=O)N[C@@H](C)C(=O)N[C@@H](CCCNC(=N)N)C(=O)N[C@@H](CCC(=O)O)C(=O)N[C@@H](Cc1ccccc1)C(=O)N[C@H](C(=O)N[C@@H](CCC(N)=O)C(=O)N[C@@H](Cc1c[nH]c2ccccc12)C(=O)N[C@@H](CC(C)C)C(=O)N[C@@H](CC(C)C)C(=O)N[C@@H](CCCCNC(=O)CNC(=O)[C@H](CO)NC(=O)[C@H](CCC(=O)O)NC(=O)CNC(=O)[C@H](CO)NC(=O)CC[C@H](NC(=O)CC[C@H](NC(=O)CCCCCCCCCCCCCCCCC(=O)O)C(=O)O)C(=O)O)C(=O)N[C@H](C(N)=O)[C@@H](C)O)C(C)C [Example 25, N^ε28-[2-[[(2S)-2-[[(2S)-4-carboxy-2-[[2-[[(2S)-2-[[(4S)-4-carboxy-4-[[(4S)-4-carboxy-4-(17-carboxyheptadecanoylamino)butanoyl]amino]butanoyl]amino]-3-hydroxypropanoyl]amino]acetyl]amino]butanoyl]amino]-3-hydroxypropanoyl]amino]acetyl]-[Aib2,Leu10,Glu15,Lys17,Arg20,Glu21,Leu27,Lys28]-Glucagon amide] (I: H-H[Aib]QGTFTSDLSKYLESKRAREFVQWLLKT-NH2 / II: {C18 diacid-γGlu-γGlu}-SGESG; amide I:28-II:C; N-terminus assumed)	0.0447 nM

Further lines, results first:

EC50	Compound
0.0029 nM	CC(C)C[C@H](NC(=O)[C@H](Cc1c[nH]c2ccccc12)NC(=O)[C@H](C)NC(=O)[C@@H](NC(=O)[C@H](Cc1ccccc1)NC(=O)[C@H](CCC(=O)O)NC(=O)[C@H](CCCNC(=N)N)NC(=O)[C@H](C)NC(=O)[C@H](CCCNC(=N)N)NC(=O)[C@H](CCCNC(=N)N)NC(=O)[C@H](CO)NC(=O)[C@H](CCC(=O)O)NC(=O)[C@H](CC(C)C)NC(=O)[C@H](Cc1ccc(O)cc1)NC(=O)[C@H](CCCCN)NC(=O)[C@H](CO)NC(=O)[C@H](CC(C)C)NC(=O)[C@H](CC(=O)O)NC(=O)[C@H](CO)NC(=O)[C@@H](NC(=O)[C@H](Cc1ccccc1)NC(=O)[C@@H](NC(=O)CNC(=O)[C@H](Cc1c[nH]cn1)NC(=O)C(C)(C)NC(=O)[C@@H](N)Cc1c[nH]cn1)[C@@H](C)O)[C@@H](C)O)C(C)C)C(=O)N[C@@H](CC(C)C)C(=O)N[C@@H](CCCCNC(=O)CC[C@H](NC(=O)COCCOCCNC(=O)COCCOCCNC(=O)CC[C@H](NC(=O)CC[C@H](NC(=O)CCCCCCCCCCCCCCCCC(=O)O)C(=O)O)C(=O)O)C(=O)O)C(=O)N[C@H](C(N)=O)[C@@H](C)O [Example 31, N^ε28-[(4S)-4-carboxy-4-[[2-[2-[2-[[2-[2-[2-[[(4S)-4-carboxy-4-[[(4S)-4-carboxy-4-(17-carboxyheptadecanoylamino)butanoyl]amino]butanoyl]amino]ethoxy]ethoxy]acetyl]amino]ethoxy]ethoxy]acetyl]amino]butanoyl]-[Aib2,His3,Leu10,Glu15,Arg20,Glu21,Ala24,Leu27, Lys28]-Glucagon amide] (H-H[Aib]HGTFTSDLSKYLESRRAREFVAWLLK([γGlu-AEEA-AEEA-γGlu-γGlu-C18 diacid])T-NH2; N-terminus assumed)
0.002 nM	CC(C)C[C@H](NC(=O)[C@H](Cc1ccc(O)cc1)NC(=O)[C@H](CCCCN)NC(=O)[C@H](CO)NC(=O)[C@H](CC(C)C)NC(=O)[C@H](CC(=O)O)NC(=O)[C@H](CO)NC(=O)[C@@H](NC(=O)[C@H](Cc1ccccc1)NC(=O)[C@@H](NC(=O)CNC(=O)[C@H](Cc1c[nH]cn1)NC(=O)C(C)(C)NC(=O)[C@@H](N)Cc1c[nH]cn1)[C@@H](C)O)[C@@H](C)O)C(=O)N[C@@H](CCC(=O)O)C(=O)N[C@@H](CO)C(=O)N[C@@H](CCCNC(=N)N)C(=O)N[C@@H](CCCNC(=N)N)C(=O)N[C@@H](C)C(=O)N[C@@H](CCCNC(=N)N)C(=O)N[C@@H](CC(=O)O)C(=O)N[C@@H](Cc1ccccc1)C(=O)N[C@H](C(=O)N[C@@H](CCC(N)=O)C(=O)N[C@@H](Cc1c[nH]c2ccccc12)C(=O)N[C@@H](CC(C)C)C(=O)N[C@@H](CC(C)C)C(=O)N[C@@H](CCCCNC(=O)CNC(=O)[C@H](CO)NC(=O)[C@H](CCC(=O)O)NC(=O)CNC(=O)[C@H](CO)NC(=O)CC[C@H](NC(=O)CC[C@H](NC(=O)CCCCCCCCCCCCCCCCC(=O)O)C(=O)O)C(=O)O)C(=O)N[C@H](C(N)=O)[C@@H](C)O)C(C)C [Example 37, N^ε28-[2-[[(2S)-2-[[(2S)-4-carboxy-2-[[2-[[(2S)-2-[[(4S)-4-carboxy-4-[[(4S)-4-carboxy-4-(17-carboxyheptadecanoylamino)butanoyl]amino]butanoyl]amino]-3-hydroxypropanoyl]amino]acetyl]amino]butanoyl]amino]-3-hydroxypropanoyl]amino]acetyl]-[Aib2,His3,Leu10,Glu15, Arg20,Leu27,Lys28]-Glucagon amide] (I: H-H[Aib]HGTFTSDLSKYLESRRARDFVQWLLKT-NH2 / II: {C18 diacid-γGlu-γGlu}-SGESG; amide I:28-II:C; N-terminus assumed)
0.01 nM	CC(C)C[C@H](NC(=O)[C@H](Cc1ccc(O)cc1)NC(=O)[C@H](CCCCN)NC(=O)[C@H](CO)NC(=O)[C@H](CC(C)C)NC(=O)[C@H](CC(=O)O)NC(=O)[C@H](CO)NC(=O)[C@@H](NC(=O)[C@H](Cc1ccccc1)NC(=O)[C@@H](NC(=O)CNC(=O)[C@H](CCC(N)=O)NC(=O)C1(NC(=O)[C@@H](N)Cc2c[nH]cn2)CCC1)[C@@H](C)O)[C@@H](C)O)C(=O)N[C@@H](CCC(=O)O)C(=O)N[C@@H](CO)C(=O)N[C@@H](CCCNC(=N)N)C(=O)N[C@@H](CCCNC(=N)N)C(=O)N[C@@H](C)C(=O)N[C@@H](CCCNC(=N)N)C(=O)N[C@@H](CCC(=O)O)C(=O)N[C@@H](Cc1ccccc1)C(=O)N[C@H](C(=O)N[C@@H](CCC(N)=O)C(=O)N[C@@H](Cc1c[nH]c2ccccc12)C(=O)N[C@@H](CC(C)C)C(=O)N[C@@H](CC(C)C)C(=O)N[C@@H](CCCCNC(=O)CC[C@H](NC(=O)CC[C@H](NC(=O)COCCOCCNC(=O)COCCOCCNC(=O)CC[C@H](NC(=O)CCCCCCCCCCCCCCCCC(=O)O)C(=O)O)C(=O)O)C(=O)O)C(=O)N[C@H](C(N)=O)[C@@H](C)O)C(C)C [Example 44, N^ε28-[(4S)-4-carboxy-4-[[(4S)-4-carboxy-4-[[2-[2-[2-[[2-[2-[2-[[(4S)-4-carboxy-4-(17-carboxyheptadecanoylamino)butanoyl]amino]ethoxy]ethoxy]acetyl]amino]ethoxy]ethoxy]acetyl]amino]butanoyl]amino]butanoyl]-[Acb2,Leu10,Glu15,Arg20,Glu21,Leu27,Lys28]-Glucagon amide] (H-H[Ac4c]QGTFTSDLSKYLESRRAREFVQWLLK([γGlu-γGlu-AEEA-AEEA-γGlu-C18 diacid])T-NH2; N-terminus assumed)
